Key:
JNK = assay: FFA-stimulated JNK activation in MEF (in vitro kinase assay with cJun / immunoblot); assay type: cell-based, mouse
Protocol: MEF and HEK293 cells (American Type Culture Collection) were cultured in Dulbecco's modified Eagle's medium (DMEM) supplemented with 10% fetal bovine serum (Invitrogen, Carlsbad, Calif.). […] Sodium salts of fatty acids (Sigma-Aldrich, St. Louis, Mo.) were dissolved in PBS and mixed with free fatty acid (FFA)-free BSA (Roche). Stearic acid (Sigma-Aldrich, St. Louis, Mo.) was dissolved in ethanol and added to serum-free DMEM supplemented with 2% FFA-free BSA. After 1 hour incubation in serum-free DMEM, cells were treated with 0.5 mM fatty acid/0.5% BSA for 1-16 hours at 37° C.
Protein extracts were prepared using lysis buffer [20 mM Tris™ buffer (pH 7.4), 1% Triton™ X-100 detergent, 10% glycerol, 137 mM NaCl, 2 mM EDTA, 25 mM β-glycerophosphate, 1 mM sodium orthovanadate, 1 mM phenylmethylsulfonyl fluoride, and 10 μg/mL of aprotinin and leupeptin]. Extracts (50 μg of protein) were examined by immunoblot analysis with antibodies obtained from Cell Signaling (MLK3, phosphoThr277, Ser281-MLK3, ERK, phospho-ERK, p38, phospho-p38, AKT, phosphoSer473-AKT, PKCα, PKCδ, phospho-T-loop-PKC, and phospho-JNK), Transduction Labs (PKCε), PharMingen (JNK), Sigma (α-Tubulin), and Upstate Biotechnology (IRS1, phosphoSer307-IRS1 and phospho-MKK7). JNK activity was measured in an in vitro kinase assay using [γ-^32P]ATP and cJun as substrates (Whitmarsh and Davis, 2001, Methods Enzymol., 332:319-336). […]

MLK3 = MLK3 T-loop (Thr-277, Ser-281) phosphorylation immunoblot in MEF; assay type: cell-based, mouse; conditions: MEF pretreated with phorbol ester, then FFA
Protocol: Wild-type, Mkk4^−/−, Mkk7^−/−, and Mkk4^−/− Mkk7^−/− MEF (Tournier et al., 2001, Genes Dev., 15:1419-1426) and wild-type and Mlk3^−/− MEF have been previously described (Brancho et al., 2005, Mol. Cell. Biol., 25:3670-3681). Wild-type and Pkcζ^−/− MEF have also been described (Leitges et al., 2001, Mol. Cell, 8:771-780). MEF and HEK293 cells (American Type Culture Collection) were cultured in Dulbecco's modified Eagle's medium (DMEM) supplemented with 10% fetal bovine serum (Invitrogen, Carlsbad, Calif.). HEK293 cells were transfected with Lipofectamine™ transfection reagent (Invitrogen, Carlsbad, Calif.). Sodium salts of fatty acids (Sigma-Aldrich, St. Louis, Mo.) were dissolved in PBS and mixed with free fatty acid (FFA)-free BSA (Roche). Stearic acid (Sigma-Aldrich, St. Louis, Mo.) was dissolved in ethanol and added to serum-free DMEM supplemented with 2% FFA-free BSA. […]
Protein extracts were prepared using lysis buffer [20 mM Tris™ buffer (pH 7.4), 1% Triton™ X-100 detergent, 10% glycerol, 137 mM NaCl, 2 mM EDTA, 25 mM β-glycerophosphate, 1 mM sodium orthovanadate, 1 mM phenylmethylsulfonyl fluoride, and 10 μg/mL of aprotinin and leupeptin]. […] JNK activity was measured in an in vitro kinase assay using [γ-^32P]ATP and cJun as substrates (Whitmarsh and Davis, 2001, Methods Enzymol., 332:319-336). […]

[1] = tested on: diacylglycerol-responsive PKC isoforms (α, δ, and ε); assay: Down-regulation of PKC isoforms in MEF by phorbol ester; assay type: cell-based, mouse; conditions: 1 μM, 24 hours
Protocol: FIG. 7C is a set of nine gels depicting expression of PKCα, PKCδ, PKCε, MLK3, phospho-MLK3 (MLK3-P), JNK, and Tubulin and in vitro kinase activity (KA) on cJun (cJun-P) of PKGζ^−/− MEF pretreated with 1 μM TPA for 24 hours and then treated with 0.5 mM palmitate for 16 hours.
To test the requirement of PKC for FFA-stimulated MLK3 and JNK activation, the effect of PKC down-regulation was examined. In initial studies, siRNA was used to down-regulate the PKC isoforms expressed in MEF (PKCα, PKCδ, PKCε, and PKCζ). Down-regulation of individual PKC isoforms caused no change in FFA-induced MLK3 or JNK activation. […] Efficient simultaneous down-regulation of multiple PKC isoforms using siRNA was not obtained. An alternative approach was therefore used to obtain MEF lacking multiple PKC isoforms. […] The effect of pan-PKC deficiency was therefore examined by treating Pkcζ^−/− MEF with TPA (FIG. 7C).

[2] = Development of insulin resistance in mice fed a high fat diet; assay type: in vivo; conditions: male mice, high fat diet 16 weeks; s.c. 0.5 or 2.5 mg/kg twice per day; vs control treatment
Protocol: The effects of the MLK inhibitor CEP-1347 on development of insulin resistance in mice is determined. Male mice are fed a high fat diet ad libitum (Diet F3282, Bio-Serv, Frenchtown, N.J.) or a standard diet for 16 weeks, with each group administered CEP-1347 subcutaneously (s.c.) at a dose of 0.5 or 2.5 mg/kg or vehicle control, twice per day. Body mass is recorded weekly, and blood samples are collected from the tail vain after an overnight fast after 6, 12, and 16 weeks on the diet. Blood glucose concentrations are measured with a DEX® glucometer (Bayer, Tarrytown, N.Y.), and plasma insulin is measured by ELISA kit for rat insulin (Crystal Chem, Downers Grove, Ill.). Glucose tolerance tests are performed by i.p. administration of glucose (1.8 g/kg) and measurement of blood glucose at t=15, 30, 60, 90, and 120 minutes in 16-week-old mice. Insulin tolerance tests are done similarly except with the injection of human insulin (1 unit per kg; Lilly Research Laboratories, Indianapolis). Untreated animals fed the high fat diet display hyperinsulinemia, hyperglycemia, decreased insulin sensitivity, and impaired glucose disposal.

[3] = Established insulin resistance in ob/ob mice; assay type: in vivo; conditions: s.c. 0.5 or 2.5 mg/kg twice per day for two weeks, vs vehicle control
Protocol: The effects of the MLK inhibitor CEP-1347 to alleviate established insulin resistance in mice is determined. Ten-week old ob/ob mice (Jackson Laboratory, Bar Harbor, Me.) are obese and display hyperinsulinemia, hyperglycemia, decreased insulin sensitivity, and impaired glucose disposal. Such mice are administered CEP-1347 subcutaneously (s.c.) at a dose of 0.5 or 2.5 mg/kg or vehicle control, twice per day for two weeks. Blood glucose concentrations are measured with a DEX® glucometer (Bayer, Tarrytown, N.Y.), and plasma insulin is measured by ELISA kit for rat insulin (Crystal Chem, Downers Grove, Ill.). Following day 14 of the treatment, glucose tolerance tests are performed by i.p. administration of glucose (1.8 g/kg) and measurement of blood glucose at t=15, 30, 60, 90, and 120 minutes. Insulin tolerance tests are performed similarly except with the injection of human insulin (1 unit per kg; Lilly Research Laboratories, Indianapolis).

Question: Which JNK activation (JNK; MEF, 0.5 mM FFA, 16 hours) does the source give for `CCCCCCCCCCCCCCCCCC(=O)O` [stearate, stearic acid] here?
Answer: resulted in JNK activation

Question: With `CCCCCCCCCCCCCC(=O)O[C@@H]1[C@@H](C)[C@@]2(O)[C@@H](C=C(CO)C[C@]3(O)C(=O)C(C)=C[C@@H]23)[C@@H]2C(C)(C)[C@]12OC(C)=O` [TPA, Phorbol-12-Myristate-13-Acetate] as the compound, how does the “effect on FFA-induced JNK activation” value (JNK; MEF pretreated with phorbol ester, then FFA) read?
Answer: did not affect

Question: What about the “effect on FFA-induced MLK3 activation” value (MLK3) of the same compound?
Answer: did not affect

Question: And the “down-regulation of PKC isoforms” value [1]?
Answer: caused down-regulation of diacylglycerol-responsive PKC isoforms (α, δ, and ε)

Question: Which results are given for `CCSCc1ccc2c(c1)c1c3c(c4c5cc(CSCC)ccc5n5c4c1n2[C@H]1C[C@](O)(C(=O)OC)[C@]5(C)O1)CNC3=O` [CEP-1347]?
Answer: hyperinsulinemia, hyperglycemia, decreased insulin sensitivity, impaired glucose disposal [2]: decreases these symptoms; hyperinsulinemia and hyperglycemia [3]: decreases hyperinsulinemia and hyperglycemia; insulin and glucose tolerance [3]: at least partially restores insulin and glucose tolerance

Reference: patent US9061009B2, “Mixed lineage kinases and metabolic disorders” (University of Massachusetts, priority 2007, dated 2015)
